Experimental data from ChEMBL document CHEMBL2016490, “Sinularioside, a triacetylated glycolipid from the Indonesian soft coral Sinularia sp., is an inhibitor of NO release” (2012).

How the values were obtained:
Type in all cases: functional
Details in all cases: J774, 24 h
[1] = system: J774; assay: Antiinflammatory activity in mouse J774 cells assessed as inhibition of LPS-induced NO production at 100 uM after 24 hrs by Griess method
[2] = system: J774; assay: Antiinflammatory activity in mouse J774 cells assessed as inhibition of LPS-induced NO production at 30 uM after 24 hrs by Griess method
[3] = system: J774; assay: Antiinflammatory activity in mouse J774 cells assessed as inhibition of LPS-induced NO production at 10 uM after 24 hrs by Griess method

Compound CCCCCCCCCCCCCCO[C@H]1OC[C@@H](O[C@H]2OC[C@@H](O)[C@@H](OC(C)=O)[C@@H]2OC(C)=O)[C@@H](O)[C@@H]1OC(C)=O [SINULARIOSIDE] has an inhibition at 100 µM [1] of 92.3%, an inhibition at 30 µM [2] of 58.2% and an inhibition at 10 µM [3] of 6%.
